Measured values taken from US20230303557A1, “CRYSTALLINE FORM OF TLR8 AGONIST” (CHIA TAI TIANQING PHARMACEUTICAL GROUP CO., LTD., priority 2020, published 2023).
Where a name gives a salt, the structure may show the parent alone.

Columns and labels:
human TLR8 = human TLR8 (Homo sapiens (Human), UniProt Q9NR97); experiment: HEK-Blue hTLR8 SEAP reporter agonist assay; type: cell-based; conditions: HEK-Blue hTLR8 cells, 24 hours, SEAP OD650
Text: (§1) Experimental Example 1: Screening for In Vitro Receptor Binding Activity of Human Toll-Like Receptor 7 (TLR7) and Human Toll-Like Receptor 8 (TLR8)
(§2) The HEK-Blue™ hTLR7 (catalog No.: hkb-htlr7) and HEK-Blue™ hTLR8 (catalog No.: hkb-htlr8) cell lines used in this experiment were purchased from InvivoGen. The two cell lines were constructed by a human embryonic kidney 293 cell line stably co-transfecting hTLR7 or hTLR8 and inducing expression of Secreted Alkaline Phosphatase (SEAP) reporter gene, wherein SEAP reporter gene was regulated by an IFN-β promoter. […]
(§3) 2. […] The cells were counted and the cell suspension was adjusted to 500,000 cells/mL with the culture medium. […]
(§4) 4. Activity assay on the compound: 20 µL of the induced cell supernatant from each well was added to a cell culture plate containing 180 µL of QUANTI-Blue™ reagent, and after incubation at 37° C. for 1 hour, the optical density absorbance at 650 nm (OD650) was assayed for each well using a multi-functional microplate reader.
(§5) 5. Activity assay on the cells: luciferase signal (RLU) was detected using a multi-functional microplate reader as per the process described in the instructions of ATPlite 1 Step.
(§6) 6. Data analysis: compound activity: OD650 values were analyzed using a GraphPad Prism software and the dose-response curves of the compound were fitted to calculate EC50 values (half maximal effect concentration) for the compound.

human TLR7 = human TLR7 (Homo sapiens (Human), UniProt Q9NYK1); experiment: HEK-Blue hTLR7 SEAP reporter agonist assay; type: cell-based; conditions: HEK-Blue hTLR7 cells, 24 hours, SEAP OD650
Sequence of human TLR7 (Q9NYK1 27-1049): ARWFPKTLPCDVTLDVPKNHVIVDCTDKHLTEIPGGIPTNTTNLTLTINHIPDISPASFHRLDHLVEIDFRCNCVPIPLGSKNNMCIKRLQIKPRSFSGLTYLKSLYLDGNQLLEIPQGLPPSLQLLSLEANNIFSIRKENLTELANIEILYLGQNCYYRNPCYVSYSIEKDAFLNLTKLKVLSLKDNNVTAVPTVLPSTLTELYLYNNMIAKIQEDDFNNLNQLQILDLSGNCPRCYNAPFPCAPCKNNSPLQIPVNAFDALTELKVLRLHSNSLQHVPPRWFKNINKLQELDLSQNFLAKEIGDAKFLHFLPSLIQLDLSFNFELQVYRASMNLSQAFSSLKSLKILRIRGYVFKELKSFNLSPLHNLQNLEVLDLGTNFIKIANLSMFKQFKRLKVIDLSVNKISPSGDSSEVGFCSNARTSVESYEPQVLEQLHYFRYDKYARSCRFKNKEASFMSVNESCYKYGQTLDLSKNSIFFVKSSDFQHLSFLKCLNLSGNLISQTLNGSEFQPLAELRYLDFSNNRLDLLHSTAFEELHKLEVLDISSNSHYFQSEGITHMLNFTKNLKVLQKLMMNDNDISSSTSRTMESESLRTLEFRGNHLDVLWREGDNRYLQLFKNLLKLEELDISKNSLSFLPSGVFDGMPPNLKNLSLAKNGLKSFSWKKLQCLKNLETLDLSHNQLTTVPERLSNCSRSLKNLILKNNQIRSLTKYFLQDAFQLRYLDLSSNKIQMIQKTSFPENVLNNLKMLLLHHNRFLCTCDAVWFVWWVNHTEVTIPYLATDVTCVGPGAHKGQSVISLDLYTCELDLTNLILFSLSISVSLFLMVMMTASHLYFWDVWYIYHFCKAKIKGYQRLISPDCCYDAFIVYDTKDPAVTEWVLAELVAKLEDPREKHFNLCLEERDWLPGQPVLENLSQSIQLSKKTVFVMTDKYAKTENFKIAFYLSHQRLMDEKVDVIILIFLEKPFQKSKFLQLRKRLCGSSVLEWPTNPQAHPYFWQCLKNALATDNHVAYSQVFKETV
Text: as §1, §2, §3, §4, §5, §6

[1] = Pharmacokinetic study in mice; type: in vivo; conditions: mouse, plasma
Method: Experimental Example 3: Pharmacokinetic Study in Mice
This experiment was intended to evaluate the pharmacokinetic behavior of the compound after a single intravenous injection or intragastric administration in mice.
The concentration of the test compound in plasma was determined by high performance liquid chromatography-tandem mass spectrometry (LC-MS/MS). The retention times of the compound and internal standard, chromatogram acquisitions and integrals of chromatograms were processed using the software Analyst (Applied Biosystems), and the data statistics were processed using the software Watson LIMS (Thermo Fisher Scientific) or Analyst (Applied Biosystems).
The plasma concentrations were processed using a non-compartmental model of WinNonlin™ Version 6.3 (Pharsight, Mountain View, CA), a pharmacokinetic software, and the pharmacokinetic parameters were calculated using a linear-log trapezoidal method.
The related pharmacokinetic parameters in the mice at 1 mg/Kg intravenous injection and 5 mg/Kg oral intragastric administration of the hydrochloride of the compound of formula (I) are shown in Table 4 below.

Photostability testing = type: physicochemical; conditions: for Appearance / Content / Enantiomer / Total impurity content / Water: photostability
Text: 1) Photostability Testing
Two test samples (one as a 5-day test sample, the other as a 10-day test sample) and two controls (one as a 5-day control, the other as a 10-day control) were used. The test samples were spread as thin layers on clean watch glasses and covered with quartz glass covers. The controls were packaged in the same manner as the test samples except that the watch glasses were covered with aluminum film.
Test conditions: a photostability tester.

[2] = High-temperature (60° C.) stability testing; type: physicochemical
Method: 2) Testing for the Effect of Temperature
Each sample was placed on an open watch glass and tested under high-temperature conditions (60° C.).

[3] = High-humidity (25° C./92.5 RH) stability testing; type: physicochemical; conditions: for Appearance / Content / Enantiomer / Total impurity content / Water: 25° C./92.5RH
Method: 3) Testing for the Effect of Humidity
Each sample was placed in an open low-form weighing bottle and tested under high-humidity conditions (25° C./92.5 RH).

[4] = Accelerated stability testing (40±2° C./75±5% RH); type: physicochemical
Method: Inner packaging: a double-layer medical low-density polyethylene bag; outer packaging: an aluminum foil bag.
Test conditions: 40±2° C./75±5% RH.

[5] = oral intragastric administration 5 mg/Kg
[6] = Day 5, control group (aluminum film)
[7] = Day 10, control group (aluminum film)

Sequence of human TLR8 (Q9NR97 27-1041): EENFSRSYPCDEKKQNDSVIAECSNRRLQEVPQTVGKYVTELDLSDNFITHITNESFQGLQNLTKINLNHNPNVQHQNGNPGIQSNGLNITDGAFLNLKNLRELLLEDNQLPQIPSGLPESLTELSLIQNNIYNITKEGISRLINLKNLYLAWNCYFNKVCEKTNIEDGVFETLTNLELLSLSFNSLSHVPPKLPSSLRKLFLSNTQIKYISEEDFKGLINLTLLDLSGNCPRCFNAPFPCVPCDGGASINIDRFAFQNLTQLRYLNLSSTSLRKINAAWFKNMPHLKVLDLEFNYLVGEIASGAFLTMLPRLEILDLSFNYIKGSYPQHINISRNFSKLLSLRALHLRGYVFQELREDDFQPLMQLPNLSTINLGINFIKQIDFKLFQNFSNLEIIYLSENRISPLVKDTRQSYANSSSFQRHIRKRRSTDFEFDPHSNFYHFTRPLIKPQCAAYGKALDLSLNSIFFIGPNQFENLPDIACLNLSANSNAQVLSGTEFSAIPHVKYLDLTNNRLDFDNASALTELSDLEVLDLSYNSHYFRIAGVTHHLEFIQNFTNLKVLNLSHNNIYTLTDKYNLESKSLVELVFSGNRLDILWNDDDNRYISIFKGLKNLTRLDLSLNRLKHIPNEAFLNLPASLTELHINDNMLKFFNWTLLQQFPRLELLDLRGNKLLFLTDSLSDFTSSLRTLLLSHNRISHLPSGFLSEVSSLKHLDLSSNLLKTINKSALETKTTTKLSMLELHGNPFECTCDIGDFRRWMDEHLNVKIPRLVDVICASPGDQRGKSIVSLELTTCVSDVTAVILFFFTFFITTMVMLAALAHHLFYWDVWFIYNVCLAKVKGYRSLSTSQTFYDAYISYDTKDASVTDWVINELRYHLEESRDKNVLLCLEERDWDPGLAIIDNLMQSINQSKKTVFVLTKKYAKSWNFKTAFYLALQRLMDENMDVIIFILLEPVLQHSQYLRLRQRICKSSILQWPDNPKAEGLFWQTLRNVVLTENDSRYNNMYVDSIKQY

CCCC[C@](C)(Cc1ncn[nH]1)Nc1nc(N)nc2cnccc12 [Hydrochloride of compound of formula (I)]
EC50 (human TLR8): 0.003 µM
EC50 (human TLR7): 33.3 µM
bioavailability ([1]; 5 mg/Kg oral vs 1 mg/Kg intravenous, read-out: Bioavailability (F%)): 27.7%
AUC(0-t) ([1]; intravenous injection 1 mg/Kg): 0.45 µM·h
clearance ([1]; intravenous injection 1 mg/Kg): 90.2 mL/min/kg
Vd ([1]; intravenous injection 1 mg/Kg, read-out: Vdss): 1.75 L/kg
half-life ([1]; intravenous injection 1 mg/Kg, read-out: t½ (converted)): 15 min
AUC(0-t) [1, 5]: 0.624 µM·h
Cmax [1, 5]: 421 nM
Tmax [1, 5]: 30 min

CCCC[C@](C)(Cc1ncn[nH]1)Nc1nc(N)nc2cnccc12
Photostability (conclusion) (Photostability testing; lighting conditions, 5-day and 10-day): good photostability
Appearance (Photostability testing; [6]): Off-white powder
Content (Photostability testing; [6]): 98.7%
Enantiomer (Photostability testing; [6]): 0.35%
Total impurity content (Photostability testing; [6]): <0.05%
Water (Photostability testing; [6]): 0.25%
Appearance (Photostability testing; Day 5, test group): Off-white powder
Content (Photostability testing; Day 5, test group): 98.8%
Enantiomer (Photostability testing; Day 5, test group): 0.34%
Total impurity content (Photostability testing; Day 5, test group): <0.05%
Water (Photostability testing; Day 5, test group): 0.24%
Appearance (Photostability testing; [7]): Off-white powder
Content (Photostability testing; [7]): 99.1%
Enantiomer (Photostability testing; [7]): 0.36%
Total impurity content (Photostability testing; [7]): <0.05%
Water (Photostability testing; [7]): 0.25%
Appearance (Photostability testing; Day 10, test group): Off-white powder
Content (Photostability testing; Day 10, test group): 98.6%
Enantiomer (Photostability testing; Day 10, test group): 0.34%
Total impurity content (Photostability testing; Day 10, test group): <0.05%
Water (Photostability testing; Day 10, test group): 0.25%
Appearance (Photostability testing; initial value): Off-white powder
Content (Photostability testing; initial value): 98.3%
Enantiomer (Photostability testing; initial value): 0.34%
Total impurity content (Photostability testing; initial value): <0.05%
Water (Photostability testing; initial value): 0.19%
High-temperature stability (conclusion) ([2]; 5-day, 10-day and 30-day): good high-temperature stability
Appearance ([2]; Day 5): Off-white powder
Content ([2]; Day 5): 99.1%
Enantiomer ([2]; Day 5): 0.35%
Total impurity content ([2]; Day 5): <0.05%
Water ([2]; Day 5): 0.25%
Appearance ([2]; Day 10): Off-white powder
Content ([2]; Day 10): 99.0%
Enantiomer ([2]; Day 10): 0.37%
Total impurity content ([2]; Day 10): <0.05%
Water ([2]; Day 10): 0.24%
Appearance ([2]; Day 30): Off-white powder
Content ([2]; Day 30): 98.2%
Enantiomer ([2]; Day 30): 0.34%
Total impurity content ([2]; Day 30): <0.05%
Water ([2]; Day 30): 0.26%
Appearance ([2]; initial value): Off-white powder
Content ([2]; initial value): 98.3%
Enantiomer ([2]; initial value): 0.34%
Total impurity content ([2]; initial value): <0.05%
Water ([2]; initial value): 0.19%
High-humidity stability (conclusion) ([3]; 25° C./92.5 RH, 5-day, 10-day and 30-day): good high-humidity stability
Appearance ([3]; Day 5): Off-white powder
Content ([3]; Day 5): 98.8%
Enantiomer ([3]; Day 5): 0.35%
Total impurity content ([3]; Day 5): <0.05%
Water ([3]; Day 5): 0.29%
Appearance ([3]; Day 10): Off-white powder
Content ([3]; Day 10): 99.4%
Enantiomer ([3]; Day 10): 0.35%
Total impurity content ([3]; Day 10): <0.05%
Water ([3]; Day 10): 0.29%
Appearance ([3]; Day 30): Off-white powder
Content ([3]; Day 30): 98.7%
Enantiomer ([3]; Day 30): 0.35%
Total impurity content ([3]; Day 30): <0.05%
Water ([3]; Day 30): 0.30%
Appearance ([3]; initial value): Off-white powder
Content ([3]; initial value): 98.3%
Enantiomer ([3]; initial value): 0.34%
Total impurity content ([3]; initial value): <0.05%
Water ([3]; initial value): 0.19%
Appearance ([4]; Month 1): Off-white powder
Content ([4]; Month 1): 98.9%
Total impurity content ([4]; Month 1): <0.05%
Water ([4]; Month 1): 0.30%
Appearance ([4]; Month 2): Off-white powder
Content ([4]; Month 2): 99.5%
Total impurity content ([4]; Month 2): <0.05%
Water ([4]; Month 2): 0.31%
Appearance ([4]; Month 3): Off-white powder
Content ([4]; Month 3): 98.8%
Enantiomer ([4]; Month 3): 0.32%
Stability under accelerated conditions (conclusion, XRPD) ([4]; Month 3): stays stable under accelerated conditions
Total impurity content ([4]; Month 3): <0.05%
Water ([4]; Month 3): 0.28%
XRPD ([4]; Month 3): Crystal form A
Appearance ([4]; Month 6): Off-white powder
Content ([4]; Month 6): 99.3%
Enantiomer ([4]; Month 6): 0.34%
Total impurity content ([4]; Month 6): <0.05%
Water ([4]; Month 6): 0.34%
Appearance ([4]; initial value): Off-white powder
Content ([4]; initial value): 98.3%
Enantiomer ([4]; initial value): 0.34%
Total impurity content ([4]; initial value): <0.05%
Water ([4]; initial value): 0.19%
XRPD ([4]; initial value): Crystal form A
